# In patent publication US12479840B2, “HMG-CoA reductase degradation inducing compound” (Uppthera, priority 2020, dated 2025):
# Target: T1, HMG-CoA reductase (Homo sapiens, UniProt P04035)
# T1 construct: endogenous in cells; host or cells: HepG2 (Korea Cell Line Bank)
# T1 sequence (P04035 1-888): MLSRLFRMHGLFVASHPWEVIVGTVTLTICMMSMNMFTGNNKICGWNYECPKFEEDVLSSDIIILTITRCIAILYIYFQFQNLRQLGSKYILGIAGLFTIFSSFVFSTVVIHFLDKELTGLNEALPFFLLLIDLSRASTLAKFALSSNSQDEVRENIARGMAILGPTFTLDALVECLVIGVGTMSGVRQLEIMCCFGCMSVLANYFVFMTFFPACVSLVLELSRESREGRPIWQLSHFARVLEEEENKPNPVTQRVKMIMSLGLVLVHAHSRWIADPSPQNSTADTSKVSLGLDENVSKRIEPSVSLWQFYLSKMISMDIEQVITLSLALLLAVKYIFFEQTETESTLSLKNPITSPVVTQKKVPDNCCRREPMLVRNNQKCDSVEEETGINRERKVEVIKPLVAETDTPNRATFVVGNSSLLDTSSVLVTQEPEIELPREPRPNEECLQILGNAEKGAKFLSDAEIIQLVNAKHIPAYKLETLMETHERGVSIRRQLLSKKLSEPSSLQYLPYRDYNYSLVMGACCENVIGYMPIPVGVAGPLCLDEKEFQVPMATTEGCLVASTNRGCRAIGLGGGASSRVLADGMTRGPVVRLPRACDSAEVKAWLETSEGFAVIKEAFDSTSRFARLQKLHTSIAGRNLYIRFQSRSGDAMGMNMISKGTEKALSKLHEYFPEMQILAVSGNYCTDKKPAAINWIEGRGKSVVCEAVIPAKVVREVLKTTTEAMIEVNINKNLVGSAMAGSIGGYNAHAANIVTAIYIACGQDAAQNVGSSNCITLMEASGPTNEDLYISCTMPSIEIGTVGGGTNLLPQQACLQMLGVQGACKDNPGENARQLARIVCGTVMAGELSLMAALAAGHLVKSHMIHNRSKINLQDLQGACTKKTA
# Assay: HMG-CoA reductase (HMGCR) degradation in HepG2 cells by western blotting
# Type: cell-based
# Conditions: treated for 18 hours, ratio of HMG-CoA reductase to GAPDH, read-out: DC50
# Experimental: HepG2, a human liver cancer cell line, was purchased from the Korea Cell Line Bank (KCLB), Seoul, Korea. The passage in cell culture was maintained at P105 to P110.
# The compounds of the present invention were completely dissolved in DMSO and used in the experiment. 2×10^5 cells were seeded for each well of a 12-well plate (SPL), and the cells were cultured in the culture medium in a total volume of 2 ml. Each of the compounds of the present invention and comparative compounds was diluted three folds from the highest concentration of 3 μM to the lowest concentration in 10 points and treated for 18 hours.
# Each of the compounds the present invention and comparative compounds was diluted three folds from the highest concentration of 3 μM to the lowest concentration of […] in 10 points and was treated for 18 hours.
# For SDS-PAGE and Western blotting, 1×RIPA lysis buffer (Rockland, Cat. No. MB-030-0050; Lot no. 39751), 100× Protease Inhibitor Cocktail (Quartett, Cat. No. PPI1015; Lot no. PCO50038424), Pierce™ BCA protein assay kit (ThermoScientific, Cat. No. 23225; Lot no. UC276876), albumin standard (ThermoScientific, Cat. No. 23209; Lot no. UB269561), 4-15% Mini-PROTEAN TGX stain-free gel (Bio-rad, Cat. No. 4568085; Lot no. L007041B), 10× Tris/Glycine/SDS buffer (Bio-rad, Cat. No. 1610732; Lot no. 10000044375B); 10×TBS (Bio-rad, Cat. No. 1706435; Lot no. 1000045140B), 10% Tween 20 (Cat. No. 1610781; Lot no. L004152B), Color protein standard broad range (NEB, Cat. No. P7719S; Lot no. 10040349), 4× Laemmli sample buffer (Bio-rad, Cat. No. 1610747; Lot no. L004133B), β-mercaptoethanol (Sigma-Aldrich, Cat. No. M3148; Lot no. 60-24-2), SuperBlock™ T20 (TBS) blocking buffer (ThermoScientific, Cat. No. 37536; Lot no. UC282578), 1M sodium azide solution (Sigma-Aldrich, Cat. No. 08591-1 mL-F; Lot no. BCBV4989), α-Rabbit pAb to Ms IgG (abcam, Cat. No. ab97046; Lot no. GR3252115-1), α-Goat pAb to Rb IgG (CST, Cat. No. 7074S; Lot no. 28), α-GAPDH (abcam, Cat. No. ab8245), α-HMGCR (GeneTex, Cat. No. GTX54088; Lot no. 821903509), ECL™ Prime western blotting reagents (GE Healthcare, Cat. No. RPN2232; Lot no. 17001655), Ponceau S solution (Sigma-Aldrich, Cat. No. P7170; Lot no. SLBV4112), Difco™ Skim milk (BD, Cat. No. 232100; Lot no. 8346795), and iBlot® 2 NC Regular stacks (Invitrogen, Cat. No. IB23001; Lot no. 2NR110619-02), were used.
# For cell harvesting, the cells were first separated from the plate using trypsin and then washed with the medium and PBS. Specifically, the medium was suctioned off and washed with 1 mL of PBS, and PBS was suctioned off. The cells were treated with 0.5 mL TrypLE™ Express at 37° C. for 7 minutes to separate the cells, and then 0.5 mL of complete medium was added to collect 1 mL of cell culture solution. Then, 1 mL of the cell collection solution was centrifuged at 8,000 rpm for 120 seconds, and the supernatant was removed. After washing with 0.2 mL of PBS, the PBS was removed.
# For cell lysis, a lysis buffer was added and cell debris was removed to obtain a cell lysate. Specifically, the cells were treated with 70 μL of 1×RIPA buffer containing a protease inhibitor and incubated for 30 minutes on ice. Then, the cells were centrifuged at 4° C. and 15,000 rpm for 10 minutes to obtain a cell lysate.
# Then, a standard curve was obtained using the BCA assay, and the protein mass in the lysate was quantified by substituting the curve. The mixture was incubated at 37° C. for 30 minutes using 20 μL of standard or sample solution, and 200 μL of BCA or Bradford solution, and measured at 562 nm absorbance. Samples were prepared by adding 4× sample buffer so that the quantity of protein added to each well was 15 μg.
# Sodium dodecyl sulfate polyacrylamide gel electrophoresis (SDS-PAGE) was performed by setting a running time of 100 minutes at 120 V on a 4-15% Mini-PROTEAN TGX stain-free gel (15 well). Transferring was performed on iBlot® 2 NC Mini stacks at P0 mode of the dry blotting system. […]
row,SMILES,DC50
1,"Cc1ncsc1-c1ccc(CNC(=O)[C@@H]2C[C@@H](O)CN2C(=O)[C@@H](NC(=O)COCCOCCNC(=O)O[C@H]2C[C@@H](C)C=C3C=C[C@H](C)[C@H](CC[C@@H]4C[C@@H](O)CC(=O)O4)[C@H]32)C(C)(C)C)cc1 [Compound 15, (1S,3R,7S,8S,8aR)-8-(2-((2R,4R)-4-hydroxy-6-oxotetrahydro-2H-pyran-2-yl)ethyl)-3,7-dimethyl-1,2,3,7,8,8a-hexahydronaphthalen-1-yl (2-(2-(2-(((S)-1-((2S,4R)-4-hydroxy-2-((4-(4-methylthiazol-5-yl)benzyl)carbamoyl)pyrrolidin-1-yl)-3,3-dimethyl-1-oxobutan-2-yl)amino)-2-oxoethoxy)ethoxy)ethyl)carbamate]",< 0.05 µM
2,"Cc1ncsc1-c1ccc(CNC(=O)[C@@H]2C[C@@H](O)CN2C(=O)[C@@H](NC(=O)COCCOCCOCCNC(=O)O[C@H]2C[C@@H](C)C=C3C=C[C@H](C)[C@H](CC[C@@H]4C[C@@H](O)CC(=O)O4)[C@H]32)C(C)(C)C)cc1 [Compound 16, (1S,3R,7S,8S,8aR)-8-(2-((2R,4R)-4-hydroxy-6-oxotetrahydro-2H-pyran-2-yl)ethyl)-3,7-dimethyl-1,2,3,7,8,8a-hexahydronaphthalen-1-yl ((S)-13-((2S,4R)-4-hydroxy-2-((4-(4-methylthiazol-5-yl)benzyl)carbamoyl)pyrrolidine-1-carbonyl)-14,14-dimethyl-11-oxo-3,6,9-trioxa-12-azapentadecyl)carbamate]",< 0.05 µM
3,"Cc1ncsc1-c1ccc(CNC(=O)[C@@H]2C[C@@H](O)CN2C(=O)[C@@H](NC(=O)COCCOCCOCCOCCNC(=O)O[C@H]2C[C@@H](C)C=C3C=C[C@H](C)[C@H](CC[C@@H]4C[C@@H](O)CC(=O)O4)[C@H]32)C(C)(C)C)cc1 [Compound 17, (1S,3R,7S,8S,8aR)-8-(2-((2R,4R)-4-hydroxy-6-oxotetrahydro-2H-pyran-2-yl)ethyl)-3,7-dimethyl-1,2,3,7,8,8a-hexahydronaphthalen-1-yl ((S)-16-((2S,4R)-4-hydroxy-2-((4-(4-methylthiazol-5-yl)benzyl)carbamoyl)pyrrolidine-1-carbonyl)-17,17-dimethyl-14-oxo-3,6,9,12-tetraoxa-15-azaoctadecyl)carbamate]",< 0.05 µM
4,"Cc1ncsc1-c1ccc(CNC(=O)[C@@H]2C[C@@H](O)CN2C(=O)[C@@H](NC(=O)COCCOCCOCCNC(=O)O[C@H]2C[C@@H](C)C=C3C=C[C@H](C)[C@H](CC[C@@H]4C[C@@H](O[Si](C)(C)C(C)(C)C)CC(=O)O4)[C@H]32)C(C)(C)C)cc1 [Compound 20, (1S,3R,7S,8S,8aR)-8-(2-((2R,4R)-4-((tert-butyldimethylsilyl)oxy)-6-oxotetrahydro-2H-pyran-2-yl)ethyl)-3,7-dimethyl-1,2,3,7,8,8a-hexahydronaphthalen-1-yl ((S)-13-((2S,4R)-4-hydroxy-2-((4-(4-methylthiazol-5-yl)benzyl)carbamoyl)pyrrolidine-1-carbonyl)-14,14-dimethyl-11-oxo-3,6,9-trioxa-12-azapentadecyl)carbamate]",< 0.05 µM

# Results, then the compound that gave them:
row,DC50,SMILES
1,< 0.05 µM,"Cc1ncsc1-c1ccc(CNC(=O)[C@@H]2C[C@@H](O)CN2C(=O)[C@@H](NC(=O)COCCOCCOCCOCCOCCNC(=O)O[C@H]2C[C@@H](C)C=C3C=C[C@H](C)[C@H](CC[C@@H]4C[C@@H](O)CC(=O)O4)[C@H]32)C(C)(C)C)cc1 [Compound 18, (1S,3R,7S,8S,8aR)-8-(2-((2R,4R)-4-hydroxy-6-oxotetrahydro-2H-pyran-2-yl)ethyl)-3,7-dimethyl-1,2,3,7,8,8a-hexahydronaphthalen-1-yl ((S)-19-((2S,4R)-4-hydroxy-2-((4-(4-methylthiazol-5-yl)benzyl)carbamoyl)pyrrolidine-1-carbonyl)-20,20-dimethyl-17-oxo-3,6,9,12,15-pentaoxa-18-azahenicosyl)carbamate]"
2,< 0.05 µM,"Cc1ncsc1-c1ccc(CNC(=O)[C@@H]2C[C@@H](O)CN2C(=O)[C@@H](NC(=O)COCCOCCNC(=O)O[C@H]2C[C@@H](C)C=C3C=C[C@H](C)[C@H](CC[C@@H]4C[C@@H](O[Si](C)(C)C(C)(C)C)CC(=O)O4)[C@H]32)C(C)(C)C)cc1 [Compound 19, (1S,3R,7S,8S,8aR)-8-(2-((2R,4R)-4-((tert-butyldimethylsilyl)oxy)-6-oxotetrahydro-2H-pyran-2-yl)ethyl)-3,7-dimethyl-1,2,3,7,8,8a-hexahydronaphthalen-1-yl (2-(2-(2-(((S)-1-((2S,4R)-4-hydroxy-2-((4-(4-methylthiazol-5-yl)benzyl)carbamoyl)pyrrolidin-1-yl)-3,3-dimethyl-1-oxobutan-2-yl)amino)-2-oxoethoxy)ethoxy)ethyl)carbamate]"
3,< 0.05 µM,"Cc1ncsc1-c1ccc(CNC(=O)[C@@H]2C[C@@H](O)CN2C(=O)[C@@H](NC(=O)COCCOCCOCCOCCNC(=O)O[C@H]2C[C@@H](C)C=C3C=C[C@H](C)[C@H](CC[C@@H]4C[C@@H](O[Si](C)(C)C(C)(C)C)CC(=O)O4)[C@H]32)C(C)(C)C)cc1 [Compound 21, (1S,3R,7S,8S,8aR)-8-(2-((2R,4R)-4-((tert-butyldimethylsilyl)oxy)-6-oxotetrahydro-2H-pyran-2-yl)ethyl)-3,7-dimethyl-1,2,3,7,8,8a-hexahydronaphthalen-1-yl ((S)-16-((2S,4R)-4-hydroxy-2-((4-(4-methylthiazol-5-yl)benzyl)carbamoyl)pyrrolidine-1-carbonyl)-17,17-dimethyl-14-oxo-3,6,9,12-tetraoxa-15-azaoctadecyl)carbamate]"
